System: H9c2 cells
Test: Intracellular RSSH analysis by LC-MS/MS after subcellular fractionation
Type: cell-based
Conditions: 200 μM, 2 h; for HPE-AM adducts of Cys-SSH and GSSH, cytoplasmic fraction: vs vehicle; for Cys-SH and GSH in mitochondria: did not reach statistical significance
Protocol: After confirming efficient esterase-triggered RSSH generation from these newly developed precursors in PBS (pH 7.4), we next evaluated their ability to release RSSH in cardiac cells. […] H9c2 cells were treated with each donor (200 μM, 2 h), followed by subcellular fractionation using differential centrifugation to isolate cytoplasmic and mitochondrial fractions. Each fraction was subsequently incubated with the RSSH-trapping agent HPE-IAM (5 mM in methanol) to alkylate and stabilize transient RSSH species. The resulting adducts were analyzed by LC–MS/MS.[40, 41] In the cytoplasmic fraction, both donors increased HPE-AM adducts of Cys-SSH and GSSH, with APT-1 showing higher levels than APT-1-TPP (Figure 3a,b).
Figure 3. Measurement of cysteine hydropersulfide (Cys-SSH) and glutathione hydropersulfide (GSSH) in cytoplasm (a and b) and mitochondria (c and d) of H9c2 cells. Cells were treated with APT-1 (200 μM), APT-1-TPP (200 μM), or vehicle (0.01% DMSO in serum-free medium) for 2 h, followed by subcellular fractionation. Each fraction was incubated with HPE-IAM (5 mM, 30 min) to trap RSSH species prior to LC–MS/MS analysis. Data are mean ± SEM (n = 3); *p ≤ 0.05, **p ≤ 0.01. […]
Intracellular RSSH Analysis by LC-MS
H9c2 cells were cultured in 150-mm dishes to 80–90% confluency and treated for 2 h with either control medium (FBS-free DMEM, 0.01% DMSO) or 200 μM RSSH donors (FBS-free DMEM with APT-1 or APT-1-TPP). Cells were washed two times with warm PBS, collected by scraping, and centrifuged at 1,000 × g for 10 min at 4 °C (Sorvall ST 8R, ThermoFisher). Pellets were resuspended in 0.6 mL sucrose buffer; ¼ was reserved for BCA assay and ¾ used for fractionation. Cells were lysed on ice by 20 passages through a 26-G needle and centrifuged at 1,500 × g for 10 min at 4 °C (Z 216 MK, HERMLE). Pellets (nuclear/debris fraction) were collected, and supernatants were centrifuged at 12,000 × g for 10 min at 4 °C. Pellets (mitochondrial fraction) and supernatants (cytoplasmic fraction) were collected. Each of these fractions were resuspended in methanol containing 5 mM HPE-IAM, sonicated (3 × 10 s on/10 s off, Branson Sonifier SFX150), incubated at 37 °C for 30 min, and centrifuged at 16,000 × g for 10 min at 4 °C.
Supernatants were analyzed by MRM LC-MS/MS (Ultivo Triple Quadrupole, Agilent) using a Poroshell 120 EC-C18 column (4.6 × 100 mm, 2.7 μm; Agilent) at 30 °C, 0.6 mL/min, with the following gradient (solvent A: water + 0.1% TFA; solvent B: acetonitrile + 0.1% TFA): 0–1.5 min, […]
min, 97% A. Injection volume: 10 μL. Experiments were performed in triplicate (n = 3 biological replicates). Data are shown as mean ± SEM. […]
Ta b l e S1. MRM parameters for LC-MS/MS
Analyte Polarity Precursor ion Product ion Collision energy
Figure S21. Measurement of H2S2, and H2S in cytoplasm (A, B) and mitochondria (C,D) of H9c2 cells treated with APT-1 (200 µM) APT-1-TPP (200 µM), or vehicle (0.01% DMSO in serum-free medium) for 2 h. Data are mean ± SEM (n = 3); *p ≤ 0.05, **p ≤ 0.01.
Figure S22. Measurement of Cys-SH and GSH in cytoplasm (A, B) and mitochondria (C, D) of H9c2 cells […]
Cytotoxicity Assessment of Hydropersulfide Precursors in H9c2 and HepG2 cells Cell viability was measured using the Cell Counting Kit-8 (CCK-8, Dojindo).[7] H9c2 cardiomyoblast and HepG2 cells were seeded at a density of 8 × 10³ cells/well in a 96-well plate (flat-bottom, tissue culture-treated). […]

Row | SMILES | Cys-SH and GSH in the cytoplasm | H2S and H2S2 levels in mitochondria | Cys-SSH and GSSH adducts, mitochondrial fraction (compared with APT-1) | HPE-AM adducts of Cys-SSH and GSSH, cytoplasmic fraction | Cys-SH and GSH in mitochondria | H2S and H2S2 levels in the cytoplasm
1 | CC(=O)NC(C(=O)N(C)CCC[P+](c1ccccc1)(c1ccccc1)c1ccccc1)C(C)(C)SSC(=O)N(C)CCOC(C)=O (stereo not drawn) [APT-1-TPP] | significant increases | elevated | substantially higher levels | increased | modest increases | 
2 | COC(=O)C(NC(C)=O)C(C)(C)SSC(=O)N(C)CCOC(C)=O (stereo not drawn) [APT-1] | significant increases |  |  | increased | modest increases | elevated

Reference: PMC13224100, “Esterase-Responsive Mitochondria-Targeted Hydropersulfide Donors Mitigate Doxorubicin Cardiotoxicity While Preserving Anticancer Activity” (Angewandte Chemie (International ed. in English), 2025)
